In patent US6589946B2, “Bile salt conjugates” (Galmed International Limited, priority 1998, dated 2003):

What was measured:
[1] = Crystal observation time (nucleation time) assay in model bile; conditions: for effect on nucleation time versus control solution: 20% of NaTC replaced by the specific conjugate
Description: Aliquots from each model bile were examined daily by polarized light microscopy. COT was defined as the initial time of detection of at least three cholesterol monohydrate crystals per microscopic field at 100 fold magnification.
Cholesterol 15 mM, EYL 30 ml, NaTC 150 mL. […] In the test solutions 20 mole percent of NaTC was replaced by an equimolar amount of each specific fatty acid/bile acid conjugate tested.

[2] = Cholesterol crystal mass in model bile
Description: (§1) EYL, cholesterol and Na-TC mixtures were dissolved in CHCl3/CH3OH (2:1 v/v), dried under N2 at room temperature, lyophilized overnight and kept at −20°C. under argon until used. Model bile solutions were prepared by suspending the dried lipids in 150 mM NaCl, 1.5 mM disodium EDTA, 50 mM Tris-HCl pH 8.0 and incubating the suspension at 55° C. for 1 hour. The solubilized model biles were incubated, in sealed vials under argon, at 37° C. for the duration of the experiment. Aliquots from the models were examined daily.
Chemical analyses of cholesterol were performed on each sample on the last day of the experiment (day 14), as previously described (G. J. Somjen see above). The samples were collected from the micro wells, centrifuged in an Airfuge (Beckman) at 70,000 rpm for 5 min. Separate determinations were performed on the total sample (before centrifugation) as well as on the supernatant solution. The amount of cholesterol in the precipitated pellets was calculated by subtracting the amounts in the supernatant solutions from the total. […] The crystal mass was also measured spectrophotometrically as the OD difference between day 0 and day 14 of the incubation.
Cholesterol 15 mM, EYL […]. […]
All samples were incubated at 37° C. for 100 hrs. The difference in the optical density between 100 hrs. and 0 hrs.

[3] = Cholesterol crystal appearance in pooled native human gallbladder bile; conditions: 10 mM test compound; 37° C.; incubation period of 21 days; control bile showed crystals from day 2
Description: Native human gallbladder bile was obtained from cholesterol gallstone patients at cholecystectomy. Pooled bile from several patients was cholesterol enriched by incubation with dried cholesterol or by mixing with a concentrated model bile prior to use in experiments in order to facilitate crystallization.
When the test compound (at a concentration of 10 mM) was incubated with pooled native human gallbladder bile from patients with cholesterol gallstones, the results were as follows:
In the native human bile, from which cholesterol crystals were removed by prior ultracentrifugation for 2 hours, new cholesterol crystals were observed from day 2 of incubation (at 37° C.). Crystal numbers increased progressively reaching a peak of more than 150 crystals per microscopic field on day 14.

[4] = Crystal growth rate (CGR) assay in model bile
Description: as §1
Crystal growth was monitored spectrophotometrically using a microplate reader (SPECTRA-STL, Austria) (G. J. Somjen, et al., J. Lipid Res., 38, […] 1048-1052). Aliquots (50 μl) of lipid solutions were mixed and shaken vigorously with equivalent volumes of Na-taurodeoxycholate (200 mM), in microplate wells. After 60 minutes at room temperature, the microplates were shaken again and the absorbance, at 405 nm, in each well was measured. Each model was prepared in triplicate and sampled in duplicate for measurement.
The data were collected and analyzed by an IBM compatible personal computer, and the optical density (OD), averaged for triplicate preparations, was calculated. A graph describing the averaged OD changes for each solution was plotted. The slope in the steepest region of the curve was determined by a linear regression fit to at least three measurements and defined as the CGR. CGR and OD differences between day 0 and day 14 were calculated for each model.

[5] = Oral PalC in hamsters, TLC of gallbladder bile; format: in vivo; conditions: per os 10-15 mg/animal/day
Description: Male, 6-7 weeks old hamsters weighing 79-83 g were maintained in an animal house with ad libidum access to water and chow.
Test hamsters were given per os by a special syringe 10-15 mg/animal/day of PalC dissolved in 1 ml of saline. Control animals were given an equivalent volume of saline alone. […] On the second day 4 hours after the application of the PalC in saline to the respective animals they were killed by an overdose of chloroform vapors. The abdomens were opened, the bile ducts were tied up, the gallbladders were excised and rinsed twice in saline. They were then placed on the top of conical plastic tubes and incised. The bile was collected at the bottom of the tubes.
Bile samples were centrifuged (Eppendorf centrifuge) for 5 min. at 2000 rpm. Debris was discarded and the supernatant was extracted according to the Folch procedure (chloroform: methanol 2:1). After partition with water, the lipid phase was analyzed by thin layer chromatography on silica gel 60 thin layer plates (Merck). The eluent was dichloromethane:methanol:acetic acid (100:5:1, v:v:v). Samples were compared with a true standard, Reference front (Rf) about 0.2 after development with I2 vapors.

[6] = fed regularly to humans; cited from earlier work
[7] = 20% of Na taurocholate replaced by test compound, vs control model bile
[8] = test compound added to whole model bile at 20% of bile salts (F)
[9] = 10% of NaTC replaced by PalC (B)

CCCCCCCCCCCCCCCCCCCC(=O)N[C@H]1CC[C@@]2(C)[C@@H](C1)C[C@@H](O)[C@@H]1[C@@H]2C[C@H](O)[C@]2(C)[C@@H]([C@H](C)CCC(=O)O)CC[C@@H]12 [C20 conjugate, 3β-Arachidylamido-7α,12α-dihydroxy-5β-cholan-24-oic Acid]
nucleation time (crystal observation time) prolonged by [1, 7]: more than 360% | effect on nucleation time versus control solution [1]: prolongation of the nucleation time | final cholesterol crystal mass, % of the control ([2]; 20 mole percent of NaTC replaced, 14 days of incubation): 38%

CCCCCCCCCCCCCC(=O)N[C@H]1CC[C@@]2(C)[C@@H](C1)C[C@@H](O)[C@@H]1[C@@H]2C[C@H](O)[C@]2(C)[C@@H]([C@H](C)CCC(=O)O)CC[C@@H]12 [Example C14, 3β-Myristylamido-7α,12α-dihydroxy-5β-cholan-24-oic Acid]
effect on nucleation time versus control solution [1]: did not prolong the nucleation time

CCCCCCCCCCCCCCCC(=O)N[C@H]1CC[C@@]2(C)[C@@H](C1)C[C@@H](O)[C@@H]1[C@@H]2C[C@H](O)[C@]2(C)[C@@H]([C@H](C)CCC(=O)O)CC[C@@H]12 [PalC, 3β-Palmitylamido-7α,12α-dihydroxy-5β-cholan-24-oic Acid]
nucleation time (crystal observation time) prolonged by [1, 7]: 167% | effect on nucleation time versus control solution [1]: prolongation of the nucleation time | nucleation time (crystal observation time) prolonged by [1, 8]: 200% | new cholesterol crystals during incubation [3]: no cholesterol crystals were seen | cholesterol mass on day 14 reduced by [2, 9]: 17% | total cholesterol crystal mass reduced by ([2]; 20% of Na taurocholate replaced by test compound, 14 days of incubation): 53% | total crystal mass reduced by ([2]; test compound added to whole model bile at 20% of bile salts (F), 14 days of incubation): 51% | crystal growth rate reduced by [4, 9]: 70% | cholesterol crystal growth rate reduced by ([4]; 20% of Na taurocholate replaced by test compound): 67% | cholesterol crystal growth rate reduced by [4, 8]: 59% | behaviour of animals in the course of treatment [5]: behaved normally | presence in gallbladder bile by TLC (absorbed and excreted into bile) ([5]; bile taken on second day 4 hours after application): presence of PalC in the bile

CCCCCCCCCCCCCCCCCC(=O)N[C@H]1CC[C@@]2(C)[C@@H](C1)C[C@@H](NC(=O)CCCCCCCCCCCCCCCCC)[C@@H]1[C@@H]2CC[C@]2(C)[C@@H]([C@H](C)CCC(=O)O)CC[C@@H]12 [distearoyl ursodeoxycholate, 3β,7α-Distearylamido-5β-ursodeoxycholan-24-oic Acid]
retardation of cholesterol crystallization (nucleation time) versus control model bile and equimolar cholic acid ([1]; 20 mole % of NaTC replaced, 37° C.): particularly effective

C[C@H](CCC(=O)O)[C@H]1CC[C@H]2[C@@H]3[C@@H](O)C[C@@H]4C[C@H](O)CC[C@]4(C)[C@H]3CC[C@]12C [ursodeoxycholic acid]
share of biliary bile acids [6]: 30-50%
